Test results published in ChEMBL document CHEMBL1201862, “PubChem BioAssay data set” (2004).
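Interpolation was linear, between the two tested concentrations surrounding the appropriate level; five concentrations were tested over 48 hours in 96-well plates. GI50: concentration for 50% inhibition of growth.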 Active and inactive are the calls of the source. Cut-off read from the data, not from the text of the source: active = GI50 up to about 1.1 µM and inactive = higher.

How the values were obtained:
Assay in all cases: NCI anticancer screen, dose series, 48 h
SK-MEL-2 = system: SK-MEL-2
SR = system: SR
SF-539 = system: SF-539
A549 = system: A549
MDA-N = system: MDA-N
KM12 = system: KM12
U-251 = system: U-251
HCT-15 = system: HCT-15
NCI-H23 = system: NCI-H23
MDA-MB-435 = system: MDA-MB-435
SNB-75 = system: SNB-75
DU-145 = system: DU-145
SN12C = system: SN12C
SNB-19 = system: SNB-19
SK-OV-3 = system: SK-OV-3
PC-3 = system: PC-3
UO-31 = system: UO-31
OVCAR-4 = system: OVCAR-4
LOX IMVI = system: LOX IMVI
A498 = system: A498

SMILES | GI50 (SK-MEL-2) | GI50 (SR) | GI50 (SF-539) | GI50 (A549) | GI50 (MDA-N) | GI50 (KM12) | GI50 (U-251) | GI50 (HCT-15) | GI50 (NCI-H23) | GI50 (MDA-MB-435) | GI50 (SNB-75) | GI50 (DU-145) | GI50 (SN12C) | GI50 (SNB-19) | GI50 (SK-OV-3) | GI50 (PC-3) | GI50 (UO-31) | GI50 (OVCAR-4) | GI50 (LOX IMVI) | GI50 (A498)
C=C1C(=O)OC2CC1C(OC(=O)/C=C/c1ccccc1)C/C(C)=C/CC/C(C)=C/CCC2(C)O (stereo not given) | 1.48 µM (inactive) | 0.778 µM (active) | 1.46 µM (inactive) | 1.71 µM (inactive) | 1.38 µM (inactive) | 1.71 µM (inactive) | 1.84 µM (inactive) | 0.889 µM | 2.29 µM (inactive) | 1.46 µM (inactive) | 1.43 µM (inactive) | 1.68 µM (inactive) | 1.57 µM (inactive) | 1.89 µM (inactive) | 2.19 µM (inactive) | 1.63 µM (inactive) | 1.61 µM (inactive) | 0.82 µM (active) | 0.828 µM (active) | 1.91 µM (inactive)
CC(C)(C)OC(=O)N(O)CCCn1cnc2c(N)ncnc21 | > 100 µM (inactive) | > 100 µM (inactive) | > 100 µM (inactive) | > 100 µM (inactive) | > 100 µM (inactive) | > 100 µM (inactive) | > 100 µM (inactive) | > 100 µM | > 100 µM (inactive) | > 100 µM (inactive) | > 100 µM (inactive) | > 100 µM (inactive) | > 100 µM (inactive) | > 100 µM (inactive) | > 100 µM (inactive) | > 100 µM (inactive) | > 100 µM (inactive) | > 100 µM (inactive) | > 100 µM (inactive) | > 100 µM (inactive)
Clc1cc(OC2C3CC4CC(C3)CC2C4)nc(Cl)n1 (stereo not given) | 12 µM (inactive) | 3.52 µM (inactive) | 20.7 µM (inactive) | 29.6 µM (inactive) | 18.8 µM (inactive) | 20.8 µM (inactive) | 17 µM (inactive) | 14 µM | 14.8 µM (inactive) | 17.4 µM (inactive) | 39 µM (inactive) | 19 µM (inactive) | 16.1 µM (inactive) | 36.4 µM (inactive) | 67.5 µM (inactive) | 19.2 µM (inactive) | 2.88 µM (inactive) | 17.1 µM (inactive) | 3.86 µM (inactive) | 19.1 µM (inactive)
